Structures are written as SMILES. Like-named read-outs stand apart in the source and are kept apart here.

One data set concerns the target TNIK(h) (Homo sapiens (Human), UniProt Q9UKE5). Put plainly: TNIK Human STE Kinase Enzymatic Radiometric Assay.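 Further: remaining kinase activity relative to DMSO control, compound added without preincubation, reaction started with ATP, IC50 from variable-slope sigmoidal dose-response fit.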 The format is biochemical.
For data set [1], the system named is Collagen I (COL1A1) in LX-2 cells. Put plainly: Collagen and Alpha-SMA in LX-2 (Western blot after TGF-β stimulation).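 Further: cells serum-starved in 0.4% FBS before treatment, lysates analysed by Western blot, DMSO-only wells as blank and TGF-β alone as maximal induction control, three independent experiments.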 The format is cell-based. The following applies: Homo sapiens, 4 ng/ml TGF-β for 48 hours, Collagen I normalized to GAPDH. A general note: A western blot detects proteins with antibodies after separation by electrophoresis.
Description: 3 ml of 0.25% Trypsin-EDTA solution was then added and cells were incubated at 37° C. for 5 min for each T150-flask. 7 ml of culture medium was added to stop trypsinization. The cells were centrifuged at 300×g for 5 min. Supernatant medium was discarded and cells were re-suspended with fresh culture medium. The cells were counted with Cell viability analyzer. 5.0E+05 cells/well were seeded into 6-well plate containing 2.0 mL of culture medium. The cells were cultured overnight at 37° C. The next day, the complete medium was replaced with medium with 0.4% FBS for starvation. […] In parallel, medium containing only DMSO and TGF-β was used as blank control and positive control, respectively. TGF-β induction was used as maximum induction positive control. The culture medium was discarded at the end of induction. Cells were washed once using ice-cold DPBS. RIPA buffer was added to lyse the cells for 20 min. The cells were then scraped off the culture plate, collected in a tube and centrifuged. The supernatant was stored at −80° C. The total amount of protein in the lysate was determined using BCA Protein Assay kit. The cell treatment of fibrosis assay was performed in three independent experiments for each compound.
All the lysate samples were adjusted to the same protein concentration with RIPA buffer after BCA assay. […] The denatured samples were used for electrophoresis. Western blot was performed according to the standard protocols. The same volume of protein was loaded onto 4-12% Bis-Tris gel. Duplicate lysates of samples were loaded onto two gels. The gels were run for 0.5 h at 80 V and 120 V for another 1 h. When the electrophoresis was completed, the gels containing target protein Collagen I (COL1A1) were transferred onto NC membrane using Trans-Blot Electrophoretic Transfer Cell for 90 min at 100 V. The iBlot™ 2 Gel Transfer Device was used to transfer α-SMA and GAPDH at 20 V for 7 min. All the membranes were blocked in TBST buffer with 5% nonfat dry milk in at RT for 1 h and then incubated with primary antibody anti-COL1A1 and anti-α-SMA in TBST buffer containing 5% BSA at 4° C. overnight. For GAPDH detection, the membrane with α-SMA immunoblots were stripped with Restore™ Western Blot Stripping Buffer after detection. And the membranes were re-blocked and then re-probed with primary antibody anti-GAPDH antibody at room temperature (RT) for 2 h. After incubation with primary antibodies, membranes were washed with TBST, then incubated with the secondary antibody at RT for 1 h. Blots were visualized using the instrument Image Quant LAS-4000. The chemiluminescent signals derived from ECL Western blotting reagents were captured. The bands integrated intensity from 16-bit blot images was used for quantitation with the software (1D component of ImageQuant TL). The quantification raw data of the two duplicated gels was obtained from ImageQuant TL. Collagen I and α-SMA proteins expression level was normalized to GAPDH for each gel. The average normalization data of the two duplicated gels was calculated and applied to calculate IC50 using an equation for a sigmoidal dose response (variable slope) of GraphPad™ Prism software. The equation is Y=Bottom+(Top-Bottom)/(1+10^((Log IC50−X)*Hillslope). Note: X is the logarithm of compound concentration, Y is the average normalization data
Data set [2] can be described thus: Metabolic stability in human liver microsomes.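 Further: NADPH-supplemented human liver microsomes sampled at 0, 5, 10, 20, 30 and 60 min, parent compound quantified by LC-MS/MS, intrinsic clearance from first-order decay, no-cofactor incubation as control.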 The format is in vitro ADME. The following applies: LM Clint; 1 μM test compound, 0.5 mg protein/mL microsome, 37° C., up to 60 min. For orientation: Liver microsomes are a subcellular fraction often used to study metabolism.
Description: Test Compound an Control Working Solution Preparation: Working solution: 5 μL of compound and control stock solution (10 mM in dimethyl sulfoxide (DMSO)) were diluted with 495 µL of acetonitrile (ACN) (intermediate solution concentration: 100 μM, 99% ACN).
Preparation Procedure: The appropriate amount of NADPH powder was weighed and diluted into a 10 mM MgCl2 solution (working solution concentration: 10 unit/mL; final concentration in reaction system: 1 unit/mL).
Preparation Procedure: The appropriate concentrations of microsome working solutions were prepared in 100 mM potassium phosphate buffer.
Stop Solution Preparation: Cold (4° C.) acetonitrile (ACN) containing 200 ng/mL tolbutamide and 200 ng/mL labetalol as internal standards (IS) was used as the stop solution.
Dilute liver microsomes to 0.56 mg/mL in 100 mM phosphate buffer.
Transfer 445 μL microsome working solutions (0.56 mg/mL) into pre-warmed ‘Incubation’ plates T60 and NCF60, Then pre-incubate ‘Incubation’ plates T60 and NCF60 for 10 min at 37° C. with constant shaking. Transfer 54 μL liver microsomes to blank plate, then add 6 μL NAPDH cofactor to blank plate, and then add 180 μL quenching solution to blank plate.
2.5.4 Add 5 μL compound working solution (100 μM) into ‘incubation’ plates (T60 and NCF60) containing microsomes and mix 3 times thoroughly.
For the NCF60 plate, add 50 μL of buffer and mix 3 times thoroughly. Start timing; plate will be incubated at 37° C. for 60 min while shaking.
For the T60 plate, mix 3 times thoroughly, and immediately remove 54 μL mixture for the 0-min time point to ‘Quenching’ plate. Then add 44 μL NAPDH cofactor to incubation plate (T60). Start timing; plate will be incubated at 37° C. for 60 min while shaking.
At 5, 10, 20, 30, and 60 min, add 180 μL quenching solution to ‘Quenching’ plates, mix once, and serially transfer 60 μL sample from T60 plate per time point to ‘Quenching’ plates.
For NCF60: mix once, and transfer 60 μL sample from the NCF60 incubation to ‘Quenching’ plate containing quenching solution at the 60-min time point.
All sampling plates are shaken for 10 min, then centrifuged at 4000 rpm for 20 minutes at 4° C.
Transfer 80 μL supernatant into 240 μL HPLC water, and mix by plate shaker for 10 min.
Each bioanalysis plate was sealed and shaken for 10 minutes prior to LC-MS/MS analysis.
The equation of first order kinetics was used to calculate T½ and Intrinsic clearance (CLint mic) in (L/min/mg).
For a further data set, the target named is MAP4K4 (h) (Homo sapiens (Human), UniProt O95819). Put plainly: MAP4K4 Human STE Kinase Enzymatic Radiometric Assay.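 Further: kinase activity remaining relative to the DMSO control, IC50 derived from sigmoidal variable-slope curve fits, no preincubation of compound with enzyme before ATP start.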 The format is biochemical. The following applies: ATP 200 μM; 40 min at room temperature.
The mark [3] stands for this setting: ATP 70 μM, 40 min at room temperature, read-out: TNIK (IC50).

Sequence of MAP4K4 (h) (O95819 whole entry): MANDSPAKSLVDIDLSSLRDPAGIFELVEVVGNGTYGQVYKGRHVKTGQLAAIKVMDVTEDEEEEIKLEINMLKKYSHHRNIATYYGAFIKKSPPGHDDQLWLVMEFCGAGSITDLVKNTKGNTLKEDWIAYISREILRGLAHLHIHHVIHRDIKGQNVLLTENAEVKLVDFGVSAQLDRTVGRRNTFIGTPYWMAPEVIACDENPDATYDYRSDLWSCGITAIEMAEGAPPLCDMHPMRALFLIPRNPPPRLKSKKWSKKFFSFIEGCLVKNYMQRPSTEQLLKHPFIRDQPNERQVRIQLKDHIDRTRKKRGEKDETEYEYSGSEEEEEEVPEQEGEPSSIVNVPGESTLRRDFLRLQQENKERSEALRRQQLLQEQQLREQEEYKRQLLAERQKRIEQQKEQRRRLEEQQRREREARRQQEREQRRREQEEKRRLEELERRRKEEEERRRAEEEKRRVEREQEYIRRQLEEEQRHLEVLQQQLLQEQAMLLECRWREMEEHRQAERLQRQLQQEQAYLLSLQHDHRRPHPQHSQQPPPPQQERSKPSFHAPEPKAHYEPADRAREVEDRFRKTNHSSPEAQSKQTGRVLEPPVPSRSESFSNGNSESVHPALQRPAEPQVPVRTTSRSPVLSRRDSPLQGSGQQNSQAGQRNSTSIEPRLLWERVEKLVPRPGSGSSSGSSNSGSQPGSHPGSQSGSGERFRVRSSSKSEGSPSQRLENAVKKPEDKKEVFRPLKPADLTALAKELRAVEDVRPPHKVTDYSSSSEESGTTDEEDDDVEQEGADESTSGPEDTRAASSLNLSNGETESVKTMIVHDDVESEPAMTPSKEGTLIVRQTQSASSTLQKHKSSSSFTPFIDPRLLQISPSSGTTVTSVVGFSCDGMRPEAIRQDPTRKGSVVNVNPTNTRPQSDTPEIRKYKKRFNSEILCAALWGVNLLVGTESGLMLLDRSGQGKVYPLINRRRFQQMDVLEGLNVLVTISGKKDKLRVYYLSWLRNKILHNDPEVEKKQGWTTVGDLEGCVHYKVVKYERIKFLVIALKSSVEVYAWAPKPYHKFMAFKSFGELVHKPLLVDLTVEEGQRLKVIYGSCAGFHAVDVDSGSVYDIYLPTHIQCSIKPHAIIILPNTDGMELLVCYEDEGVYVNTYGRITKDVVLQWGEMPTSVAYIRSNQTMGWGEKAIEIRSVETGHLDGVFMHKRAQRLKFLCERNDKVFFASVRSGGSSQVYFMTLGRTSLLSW
Sequence of TNIK(h) (Q9UKE5 whole entry): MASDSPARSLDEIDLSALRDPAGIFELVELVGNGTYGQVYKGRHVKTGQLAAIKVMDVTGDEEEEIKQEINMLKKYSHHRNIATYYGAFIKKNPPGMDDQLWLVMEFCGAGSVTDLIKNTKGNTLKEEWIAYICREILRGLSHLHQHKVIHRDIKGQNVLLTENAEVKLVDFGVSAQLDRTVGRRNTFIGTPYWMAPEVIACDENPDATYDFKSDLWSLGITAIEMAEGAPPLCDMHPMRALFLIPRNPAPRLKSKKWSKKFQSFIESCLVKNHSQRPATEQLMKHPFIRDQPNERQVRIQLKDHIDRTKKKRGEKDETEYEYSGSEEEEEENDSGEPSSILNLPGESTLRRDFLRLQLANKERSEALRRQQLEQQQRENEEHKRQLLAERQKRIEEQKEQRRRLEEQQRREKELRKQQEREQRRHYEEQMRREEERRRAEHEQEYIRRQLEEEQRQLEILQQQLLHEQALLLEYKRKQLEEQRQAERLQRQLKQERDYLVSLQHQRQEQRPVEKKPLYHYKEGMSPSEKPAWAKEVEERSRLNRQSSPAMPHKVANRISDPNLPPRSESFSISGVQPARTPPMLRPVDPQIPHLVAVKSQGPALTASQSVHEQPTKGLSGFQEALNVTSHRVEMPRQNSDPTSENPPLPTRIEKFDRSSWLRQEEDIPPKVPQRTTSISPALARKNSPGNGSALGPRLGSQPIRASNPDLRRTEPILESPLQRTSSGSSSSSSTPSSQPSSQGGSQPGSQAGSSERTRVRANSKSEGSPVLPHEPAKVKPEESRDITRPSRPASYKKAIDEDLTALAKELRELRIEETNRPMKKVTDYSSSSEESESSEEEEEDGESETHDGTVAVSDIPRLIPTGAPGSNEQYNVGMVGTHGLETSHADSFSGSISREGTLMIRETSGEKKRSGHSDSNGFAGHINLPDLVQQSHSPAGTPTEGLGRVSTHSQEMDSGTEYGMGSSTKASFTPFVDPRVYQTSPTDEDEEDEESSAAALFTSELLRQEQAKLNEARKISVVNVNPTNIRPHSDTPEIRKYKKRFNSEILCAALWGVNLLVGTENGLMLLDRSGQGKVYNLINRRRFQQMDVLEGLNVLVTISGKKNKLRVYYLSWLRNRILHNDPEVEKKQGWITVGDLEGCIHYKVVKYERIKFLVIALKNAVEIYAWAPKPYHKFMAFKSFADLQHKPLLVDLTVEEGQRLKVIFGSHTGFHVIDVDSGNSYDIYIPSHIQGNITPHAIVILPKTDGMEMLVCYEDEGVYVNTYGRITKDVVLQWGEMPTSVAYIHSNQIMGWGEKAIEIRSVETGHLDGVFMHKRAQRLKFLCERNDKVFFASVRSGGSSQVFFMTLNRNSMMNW
Description for MAP4K4 (h): (§1) The reaction is initiated by the addition of the Mg/ATP mix. After incubation for 40 minutes at room temperature, the reaction is stopped by the addition of phosphoric acid to a concentration of 0.5%.
INCUBATION: 40 min at Room temperature
COMPOUND DILUTION SCHEME: All compounds supplied were prepared to a working stock of 50× final assay concentration in 100% DMSO. Where appropriate, more concentrated stocks were diluted manually to 50× using 100% DMSO. Compounds supplied as powders were reconstituted to a 10 mM stock in 100% DMSO before further dilution to 50×.
ASSAY PROCEDURE: The required volume of the 50× stock of test compound was added to the assay before a reaction mix containing the enzyme and substrate was added. The reaction was initiated by the addition of ATP at the selected concentration. There was no pre-incubation of the compound with the enzyme/substrate mix prior to ATP addition.
Results are expressed as kinase activity remaining, as a percentage of the DMSO control. This is calculated using the following formula: Mean of Sample Counts−Mean of Blank Counts/Mean of Control Counts
(§2) For IC50 determinations, data are analyzed using XLFit version 5.3 (ID Business Solutions). Sigmoidal dose-response (variable slope) curves are fit based on the mean result for each test concentration using non-linear regression analysis. Where the top and/or bottom of the curve fall >10% out with 100 and 0, respectively, either or both of these limits may be constrained at 100 and 0, provided that the QC criterion on R2 is met.
Description for TNIK(h): as §1
INCUBATION: 40 min at Room temperature
COMPOUND DILUTION SCHEME: All compounds supplied were prepared to a working stock of 50× final assay concentration in 100% DMSO. Where appropriate, more concentrated stocks were diluted manually to 50× using 100% DMSO. Compounds supplied as powders were reconstituted to a 10 mM stock in 100% DMSO before further dilution to 50×. ASSAY PROCEDURE: The required volume of the 50× stock of test compound was added to the assay before a reaction mix containing the enzyme and substrate was added. The reaction was initiated by the addition of ATP at the selected concentration. There was no pre-incubation of the compound with the enzyme/substrate mix prior to ATP addition. […] Results are expressed as kinase activity remaining, as a percentage of the DMSO control. This is calculated using the following formula:
as §2

Usually IC50 stands for the concentration that gives 50% inhibition. For the compound `CC(C)n1cnc(-c2ccc(F)cc2)c1-c1nc(C(=O)Nc2ccc(N3CCN(CCO)CC3)cc2)c[nH]1` [Compound 117, 5′-(4-fluorophenyl)-N-(4-(4-(2-hydroxyethyl)piperazin-1-yl)phenyl)-3′-isopropyl-1H,3′H-[2,4′-biimidazole]-4-carboxamide], the IC50 was in the range of 12 to 120 nM on TNIK(h) (setting [3]), 0.1 to 1 nM in data set [1] and 12 to 120 nM against MAP4K4 (h). For the same compound, in data set [2], the “Human Liver Microsome (μM/min/mg)” value is recorded as “++ (10-100 μM/min/mg as ++)”.

For `CC(C)n1cnc(-c2ccc(F)cc2)c1-c1ccc(C(=O)Nc2ccc(N3CCN(C)CC3)cc2)o1` [Compound 121, 5-(4-(4-fluorophenyl)-1-isopropyl-1H-imidazol-5-yl)-N-(4-(4-methylpiperazin-1-yl)phenyl)furan-2-carboxamide], the IC50 on TNIK(h) (setting [3]) was 1 to 12 nM; in data set [1], less than 0.1 nM; against MAP4K4 (h), 12 to 120 nM. In addition, in data set [2], the “Human Liver Microsome (μM/min/mg)” value is “+ (>100 μM/min/mg as +)”.

Take `CN1CCN(c2ccc(NC(=O)c3c[nH]c(-c4c(-c5ccc(F)cc5)ncn4C4CCC(O)CC4)n3)cc2)CC1` (centres unmarked) [Compound 172]: in data set [1], the IC50 is less than 0.1 nM. The “Human Liver Microsome (μM/min/mg)” value in data set [2] is listed as “+++ (1-10 μM/min/mg as +++)”.

Turning to `CC(C)n1cnc(-c2ccc(F)cc2)c1-c1cccc(C(=O)Nc2ccc(N3CCN(C)CC3)cc2)n1` [Compound 127], the IC50 on TNIK(h) (setting [3]) is 1 to 12 nM; in data set [1], 0.1 to 1 nM; against MAP4K4 (h), 1 to 12 nM. In data set [2], the “Human Liver Microsome (μM/min/mg)” value is on record as “+ (>100 μM/min/mg as +)”.

For the compound `CN1CCN(c2ccc(NC(=O)c3c[nH]c(-c4c(-c5ccc(F)cc5)ncn4CC(F)(F)F)n3)cc2)CC1` [Compound 120, 5′-(4-fluorophenyl)-N-(4-(4-methylpiperazin-1-yl)phenyl)-3′-(2,2,2-trifluoroethyl)-1H,3′H-[2,4′-biimidazole]-4-carboxamide], the IC50 is 12 to 120 nM on TNIK(h) (setting [3]), less than 0.1 nM in data set [1] and greater than 120 nM on MAP4K4 (h). The “Human Liver Microsome (μM/min/mg)” value in data set [2] is given as “++ (10-100 μM/min/mg as ++)”.

As for `CN1CCN(c2ccc(NC(=O)c3c[nH]c(-c4c(-c5ccc(F)cc5)ncn4[C@H]4CC[C@H](O)CC4)n3)cc2)CC1` [Compound 159, 5′-(4-fluorophenyl)-3′-((1r,4r)-4-hydroxycyclohexyl)-N-(4-(4-methylpiperazin-1-yl)phenyl)-1H,3′H-[2,4′-biimidazole]-4-carboxamide], the results for the IC50 (on TNIK(h) (setting [3]); in data set [1]; against MAP4K4 (h)) were 1 to 12 nM, 0.1 to 1 nM and 12 to 120 nM, respectively. For the same compound, the “Human Liver Microsome (μM/min/mg)” value in data set [2] was “++ (10-100 μM/min/mg as ++)”.

With `CC(C)n1cnc(-c2ccc(F)cc2)c1-c1nc(C(=O)Nc2ccc(N(CCO)CCO)cc2)c[nH]1` [Compound 116, N-(4-(bis(2-hydroxyethyl)amino)phenyl)-5′-(4-fluorophenyl)-3′-isopropyl-1H,3′H-[2,4′-biimidazole]-4-carboxamide], the concentration for half-maximal inhibition (IC50) on TNIK(h) (setting [3]) lay in the range of 12 to 120 nM; in data set [1] it was 0.1 to 1 nM; against MAP4K4 (h) it was 12 to 120 nM. Further, the “Human Liver Microsome (μM/min/mg)” value in data set [2] was “+++ (1-10 μM/min/mg as +++)”.

Turning to `CC(C)n1cnc(-c2ccc(F)cc2)c1-c1nc(C(=O)Nc2ccc(CCO)cc2)c[nH]1` [Compound 111, 5′-(4-fluorophenyl)-N-(4-(2-hydroxyethyl)phenyl)-3′-isopropyl-1H,3′H-[2,4′-biimidazole]-4-carboxamide], the 50% inhibitory concentration (IC50) on TNIK(h) (setting [3]) was 12 to 120 nM; in data set [1], 0.1 to 1 nM; on MAP4K4 (h) it was greater than 120 nM. Further, in data set [2], the “Human Liver Microsome (μM/min/mg)” value is reported as “++ (10-100 μM/min/mg as ++)”.

Regarding `CC1CN(c2ccc(NC(=O)c3c[nH]c(-c4c(-c5ccc(F)cc5)ncn4C(C)C)n3)cc2)CC(C)N1C` (centres unmarked) [Compound 196, 5′-(4-fluorophenyl)-3′-isopropyl-N-(4-(3,4,5-trimethylpiperazin-1-yl)phenyl)-1H,3′H-[2,4′-biimidazole]-4-carboxamide], the values for the IC50 (on TNIK(h) (setting [3]); in data set [1]; against MAP4K4 (h)) were 12 to 120 nM, less than 0.1 nM and 12 to 120 nM, respectively.

`CN1[C@@H]2CC[C@H]1CN(c1ccc(NC(=O)c3c[nH]c(-c4c(-c5ccc(F)cc5)ncn4CC(F)(F)F)n3)cc1)C2` [Compound 193, 5′-(4-fluorophenyl)-N-(4-((1R,5S)-8-methyl-3,8-diazabicyclo[3.2.1]octan-3-yl)phenyl)-3′-(2,2,2-trifluoroethyl)-1H,3′H-[2,4′-biimidazole]-4-carboxamide]: the IC50 was 12 to 120 nM at TNIK(h) (setting [3]), less than 0.1 nM in data set [1] and 12 to 120 nM on MAP4K4 (h).

Take `CC(C)n1cnc(-c2ccc(Cl)cc2)c1-c1nc(C(=O)Nc2ccc(N3CCN(CCO)CC3)cc2)c[nH]1` [Compound 139, 5′-(4-chlorophenyl)-N-(4-(4-(2-hydroxyethyl)piperazin-1-yl)phenyl)-3′-isopropyl-1H,3′H-[2,4′-biimidazole]-4-carboxamide]: the IC50 at TNIK(h) (setting [3]) is 12 to 120 nM; in data set [1], 0.1 to 1 nM; against MAP4K4 (h), greater than 120 nM. Besides, the “Human Liver Microsome (μM/min/mg)” value in data set [2] is given as “++ (10-100 μM/min/mg as ++)”.

`O=C(Nc1ccc(N2CCNCC2)cc1)c1c[nH]c(-c2c(-c3ccc(F)cc3)ncn2CC(F)(F)F)n1` [Compound 167, 5′-(4-fluorophenyl)-N-(4-(piperazin-1-yl)phenyl)-3′-(2,2,2-trifluoroethyl)-1H,3′H-[2,4′-biimidazole]-4-carboxamide]: the 50% inhibitory concentration (IC50) at TNIK(h) (setting [3]) was 12 to 120 nM; in data set [1], less than 0.1 nM; against MAP4K4 (h), greater than 120 nM. Also, in data set [2], the “Human Liver Microsome (μM/min/mg)” value is recorded as “++ (10-100 μM/min/mg as ++)”.

Turning to `CC(C)n1cnc(-c2ccc(F)c(F)c2)c1-c1nc(C(=O)Nc2ccc(N3CCN(C)CC3)cc2)c[nH]1` [Compound 156, 5′-(3,4-difluorophenyl)-3′-isopropyl-N-(4-(4-methylpiperazin-1-yl)phenyl)-1H,3′H-[2,4′-biimidazole]-4-carboxamide], the concentration for half-maximal inhibition (IC50) against TNIK(h) was 12 to 120 nM; in data set [1], less than 0.1 nM; on MAP4K4 (h) it was greater than 120 nM. In addition, in data set [2], the “Human Liver Microsome (μM/min/mg)” value is recorded as “++ (10-100 μM/min/mg as ++)”.

As to `CN1CCN(c2ccc(NC(=O)c3c[nH]c(-c4c(-c5ccc(F)cc5)ncn4C(F)F)n3)cc2)CC1` [Compound 130, 3′-(difluoromethyl)-5′-(4-fluorophenyl)-N-(4-(4-methylpiperazin-1-yl)phenyl)-1H,3′H-[2,4′-biimidazole]-4-carboxamide], the results for the IC50 (at TNIK(h) (setting [3]); in data set [1]; at MAP4K4 (h)) were 12 to 120 nM, 0.1 to 1 nM and greater than 120 nM, respectively. The “Human Liver Microsome (μM/min/mg)” value in data set [2] is “++ (10-100 μM/min/mg as ++)”.

As for `CC1CN(c2ccc(NC(=O)c3c[nH]c(-c4c(-c5ccc(F)cc5)ncn4CC(F)(F)F)n3)cc2)CC(C)N1C` (centres unmarked) [Compound 190, 5′-(4-fluorophenyl)-3′-(2,2,2-trifluoroethyl)-N-(4-(3,4,5-trimethylpiperazin-1-yl)phenyl)-1H,3′H-[2,4′-biimidazole]-4-carboxamide], the 50% inhibitory concentration (IC50) on TNIK(h) (setting [3]) is 1 to 12 nM; in data set [1] it was less than 0.1 nM; against MAP4K4 (h), 12 to 120 nM.

With `CC(C)n1cnc(-c2ccc(F)c(F)c2)c1-c1nc(C(=O)Nc2ccc(N3CCN(CCO)CC3)cc2)c[nH]1` [Compound 146, 5′-(3,4-difluorophenyl)-N-(4-(4-(2-hydroxyethyl)piperazin-1-yl)phenyl)-3′-isopropyl-1H,3′H-[2,4′-biimidazole]-4-carboxamide], the results for the 50% inhibitory concentration (IC50) (at TNIK(h) (setting [3]); in data set [1]; at MAP4K4 (h)) were 12 to 120 nM, 0.1 to 1 nM and greater than 120 nM, respectively. The “Human Liver Microsome (μM/min/mg)” value in data set [2] is reported as “++ (10-100 μM/min/mg as ++)”.

In the case of `CC(C)n1cnc(-c2ccc(F)cc2)c1-c1ccc(C(=O)Nc2ccc(CCO)cc2)o1` [Compound 126, 5-(4-(4-fluorophenyl)-1-isopropyl-1H-imidazol-5-yl)-N-(4-(2-hydroxyethyl)phenyl)furan-2-carboxamide], the IC50 on TNIK(h) (setting [3]) is 12 to 120 nM; in data set [1], 0.1 to 1 nM; against MAP4K4 (h), 12 to 120 nM. Further, the “Human Liver Microsome (μM/min/mg)” value in data set [2] is “+ (>100 μM/min/mg as +)”.

`CC(C)n1cnc(-c2ccc(F)cc2)c1-c1cccc(C(=O)Nc2ccc(N3CCN(CCO)CC3)cc2)n1` [Compound 128]: the figures for the 50% inhibitory concentration (IC50) (on TNIK(h) (setting [3]); in data set [1]; at MAP4K4 (h)) were 1 to 12 nM, 0.1 to 1 nM and 1 to 12 nM, respectively. Also, in data set [2], the “Human Liver Microsome (μM/min/mg)” value is “+ (>100 μM/min/mg as +)”.

For the compound `CC(C)n1cnc(-c2ccc(F)cc2)c1-c1cccc(C(=O)Nc2ccc(CCC(=O)O)cc2)n1` [Compound 131], the concentration for half-maximal inhibition (IC50) on TNIK(h) (setting [3]) was in the range of 1 to 12 nM; in data set [1], 0.1 to 1 nM; on MAP4K4 (h) it was 12 to 120 nM. In addition, the “Human Liver Microsome (μM/min/mg)” value in data set [2] was “+++ (1-10 μM/min/mg as +++)”.

The values are drawn from patent US11530197B2, “Analogs for the treatment of disease” (Insilico Medicine IP Limited, priority 2021, dated 2022).
